Measurements published in patent US11597762B2, “Treatment of a disease of the gastrointestinal tract with an IL-12/IL-23 inhibitor released using an ingestible device” (BIORA THERAPEUTICS, INC., priority 2016, dated 2023).

Assay: Tacrolimus tissue pharmacokinetics, oral vs intra-cecal ingestible device, in Yorkshire-Cross farm swine
Assay type: in vivo
Conditions: intra-cecal compared to oral, 12 hours post-dose, FIG. 76
Procedure: No further randomization procedure was employed.
Animals in Group 1 received an ingestible device containing 0.8 mL of vehicle solution (80% alcohol, 20% HCO-60). Animals in Group 2 received orally […] liquid formulation of tacrolimus at 4 mg/0.8 mL per animal (Prograf: 5 mg/mL). Animals in Group 3 received intra-cecally an ingestible device containing tacrolimus at 1 mg in 0.8 mL per ingestible device. Animals in Group 4 received intra-cecally an ingestible device containing tacrolimus at 2 mg in 0.8 mL per ingestible device. Animals in Group 5 received intra-cecally an ingestible device containing tacrolimus at 4 mg in 0.8 mL per ingestible device. […]
Approximately 200˜400 mg of rectal content were collected, if available, with a fecal swab (Copan Diagnostics Nylon Flocked Dry Swabs, 502CS01). The fecal swab was pre-weighed and weighed after collection in the collection tube (Sterile Tube and Cap No Media, PFPM913S), and the sample weight was recorded. […]
For tissue necropsy, small intestine fluid and cecal fluid were collected separately from all the animals into two separate square plastic bottles, and stored at −20° C. The length and diameter of the cecum and the colon was measured from one animal in each group and recorded for reference. […] All samples were weighed, and the tissue sample weights were recorded. […]

With `C=CC[C@@H]1/C=C(\C)C[C@H](C)C[C@H](OC)[C@H]2O[C@@](O)(C(=O)C(=O)N3CCCC[C@H]3C(=O)O[C@H](/C(C)=C/[C@@H]3CC[C@@H](O)[C@H](OC)C3)[C@H](C)[C@@H](O)CC1=O)[C@H](C)C[C@@H]2OC` [tacrolimus] the “mean concentration of tacrolimus in the cecum tissue” value was “higher” and the “mean concentration of tacrolimus in the proximate colon tissue” value was “higher”.
